One substance from patent US4075189A, “Hexapeptides” (Parke, Davis & Company, priority 1976, dated 1978) can be followed below.

Where “and” joins values, the source holds several entries; their conditions need not be identical. Equal entries are not always repeated. No end group written: not given here.

This experiment relates to LRF (luteinizing hormone releasing factor) induced luteinizing hormone (LH) release. The experiment is described as follows: LRF antagonist activity in vitro, rat anterior pituitary cell cultures (Vale et al.). It counts as cell-based. The settings on record: LRF alone. An excerpt: Hexapeptides of this invention were screened for LRF antagonist activity in vitro using rat anterior pituitary cell cultures as described by Vale et. al. [Endocrinology, 91, 562 (1972)]. The inhibition of LRF (luteinizing hormone releasing factor) induced luteinizing hormone (LH) release into the culture medium is the endpoint in this in vitro bioassay.

As to “LRF Control: luteinizing hormone releasing factor, also referred to as luteinizing hormone releasing hormone, LH-RH; stimulus in the bioassay (QHWSYGLRPG; ends and bridges not checked; UniProt P01148 24-33, looked up)”, the “LH Value” by setting is: (Molar Conc. 2.5×10^-10) 38.98 ng/mL; (Molar Conc. 3.5×10^-10) 35.60 ng/mL and 49.99 ng/mL and 41.70 ng/mL and 64.13 ng/mL; (Molar Conc. 5×10^-10) 63.61 ng/mL.
